From the RepoRT retention time repository
Each block holds one molecule with its values, some of them ahead of it.

Experiment: HILIC, Waters ACQUITY UPLC BEH Amide, 100 × 2.1 mm, 1.7 µm; A: water + 0.125% formic acid + 10 mM ammonium formate; B: 5% water + 95% acetonitrile + 0.125% formic acid + 10 mM ammonium formate; gradient (min/%B) 0/100 2/100 7.7/70 9.5/40 10.25/30 12.75/100 17/100
Conditions: stereoisomer not certain

SMILES: CC(CCC(=O)O)C1CCC2C3C(=O)CC4CC(=O)CCC4(C)C3CC(=O)C12C (stereo unspecified) [Dehydrocholic acid]
LC retention time: 1.16 min

SMILES: CC(=O)NCCCCNCCCN [N8-Acetylspermidine]
LC retention time: 8.87 min

SMILES: O=c1cnn(C2OC(CO)C(O)C2O)c(=O)[nH]1 (stereo unspecified) [6-Azuridine]
LC retention time: 4.31 min

SMILES: CN1C2CC(OC(=O)C(CO)c3ccccc3)CC1C1OC12 (stereo unspecified) [Scopolamine]
LC retention time: 3.75 min

SMILES: Nc1c(O)cccc1C(=O)O [3-Hydroxyanthranilic acid]
LC retention time: 1.48 min

SMILES: NC(CSSCC(N)C(=O)O)C(=O)O (stereo unspecified) [Cystine]
LC retention time: 9.97 min

SMILES: COc1ccc2[nH]cc(CCN)c2c1 [5-Methoxytryptamine]
LC retention time: 4.99 min

SMILES: COc1ccc2[nH]cc(CC(=O)O)c2c1 [5-Methoxy-3-indoleacetic acid]
LC retention time: 1.32 min

SMILES: COC(=O)c1cc(O)c(O)c(O)c1 [Methylgallate]
LC retention time: 1.43 min

SMILES: CNC(=O)Oc1ccc2c(c1)C1(C)CCN(C)C1N2C (stereo unspecified) [Physostigmine]
LC retention time: 3.17 min

SMILES: Nc1[nH]c(=O)ncc1F [5-Flurocytosine]
LC retention time: 4.62 min

SMILES: OCc1cccnc1 [3-Pyridinemthanol]
LC retention time: 1.41 min

SMILES: CCCCCCCCCCCCCCCC(O)C(N)CO (stereo unspecified) [Dihydrosphingosine]
LC retention time: 4.47 min

SMILES: O=c1[nH]cnc2c1ncn2C1CCC(CO)O1 (stereo unspecified) [2',3'-Dideoxyinosine]
LC retention time: 3.44 min

SMILES: COc1cc(N)c(Cl)cc1C(=O)NC1CN2CCC1CC2 (stereo unspecified) [Zacopride]
LC retention time: 4.66 min

SMILES: Cc1ncc2n1-c1ccc(Cl)cc1C(c1ccccc1F)=NC2 [Midazolam]
LC retention time: 1.29 min

SMILES: COc1ccc2c3c1OC1C(=O)CCC4C(C2)N(C)CCC314 (stereo unspecified) [Hydrocodone]
LC retention time: 3.8 min

SMILES: CS(=O)CCC(N)C(=O)O (stereo unspecified) [Methioninesulfoxide]
LC retention time: 8.62 min

SMILES: C[N+](C)(C)CCCC(=O)O [4-Trimethylammoniobutanoic acid]
LC retention time: 7.66 min

SMILES: OC1CCCCC1O (stereo unspecified) [1,2-Cyclohexanediol]
LC retention time: 4.88 min

SMILES: CC12CCC3C4CCC(=O)C=C4CCC3C1CCC2O (stereo unspecified) [Nandrolone]
LC retention time: 1.06 min

SMILES: CC(=O)N[C@@H](CCC(N)=O)C(=O)O [N-Acetyl-L-glutamine]
LC retention time: 8.18 min

SMILES: CC(C)(C#N)c1cc(Cn2cncn2)cc(C(C)(C)C#N)c1 [Anastrozole]
LC retention time: 0.98 min

SMILES: NCCCCC(=O)O [5-Aminovaleric acid]
LC retention time: 7.24 min

SMILES: CC(C)N=c1cc2n(-c3ccc(Cl)cc3)c3ccccc3nc-2cc1Nc1ccc(Cl)cc1 [Clofazimine]
LC retention time: 1.78 min

SMILES: Cn1c(=O)[nH]c2[nH]c(=O)n(C)c2c1=O [1,7-Dimethyluric acid]
LC retention time: 4.09 min

SMILES: O=C1CCC(=O)CC1 [1,4-Cyclohexanedione]
LC retention time: 1.15 min

SMILES: O=CCC(O)C(O)CO (stereo unspecified) [2-Deoxyribose]
LC retention time: 1.42 min

SMILES: CN1CCN(c2nc3cc(C(F)(F)F)ccc3n3cccc23)CC1
LC retention time: 2.21 min

SMILES: CCC(O)CC(=O)O (stereo unspecified) [3-Hydroxyvaleric acid]
LC retention time: 1.29 min

SMILES: NC(CCC(=O)O)C(=O)NC(Cc1ccccc1)C(=O)O (stereo unspecified) [Glu-Phe]
LC retention time: 8.2 min

SMILES: O=C1C(c2c(O)[nH]c3ccccc23)=Nc2ccccc21 [Indarubicin]
LC retention time: 1.07 min

SMILES: CC12CCC3C(CCC4CC(O)CCC43C)C1CCC2=O (stereo unspecified) [Androsterone]
LC retention time: 4.62 min

SMILES: O=C(O)CCP(=O)(O)O [3-Phosphonopropionic acid]
LC retention time: 8.59 min

SMILES: C[N+](C)(C)CCOP(=O)([O-])OCC(O)CO (stereo unspecified) [Glycerophosphocholine]
LC retention time: 8.67 min

SMILES: C=COC(N)=O [Vinyl Carbamate]
LC retention time: 1.34 min

SMILES: Cn1cnc2c(ncn2C2OC(CO)C(O)C2O)c1=N (stereo unspecified) [1-Methyladenosine]
LC retention time: 7.46 min

SMILES: CCC(C)C(NC(=O)C(C)N)C(=O)O (stereo unspecified) [Ala-Ile]
LC retention time: 7.83 min

SMILES: COc1ccccc1OCCNCC(O)COc1cccc2[nH]c3ccccc3c12 (stereo unspecified) [Carvedilol]
LC retention time: 3.17 min

SMILES: O=c1ccn(C2CC(O)C(COP(=O)(O)O)O2)c(=O)[nH]1 (stereo unspecified) [Deoxyuridine monophosphate]
LC retention time: 8.25 min

SMILES: CC(N)C(=O)NC(CCC(N)=O)C(=O)O (stereo unspecified) [Ala-Gln]
LC retention time: 9.11 min

SMILES: COc1cc(C2c3cc4c(cc3C(OC3OC5COC(C)OC5C(O)C3O)C3COC(=O)C23)OCO4)cc(OC)c1O (stereo unspecified) [Etoposide]
LC retention time: 1.3 min

SMILES: Cc1cn(C2OC(CO)C(O)C2O)c(=S)[nH]c1=O (stereo unspecified) [5-Methyl-2-thiouridine]
LC retention time: 1.98 min

SMILES: O=C(O)CNC(=O)c1ccc(O)cc1 [4-Hydroxyhippuric acid]
LC retention time: 5.86 min

SMILES: CCOC(=O)c1ccc(OC(=O)CCCCCN=C(N)N)cc1 [Gabexate]
LC retention time: 3.45 min

SMILES: CN(CC(=O)O)C(=N)N [Creatine]
LC retention time: 8.15 min

SMILES: O=c1ncc(F)c[nH]1 [5-Fluro-2-pyrimidone]
LC retention time: 1.77 min

SMILES: CNCCc1cnc[nH]1 [N-alpha-methylhistamine]
LC retention time: 7.48 min

SMILES: Nc1c2c(nc3c1CCC3)CCCC2 [Ipidacrine]
LC retention time: 3.33 min

SMILES: CN1CCC23c4c5ccc(O)c4OC2C(=O)CCC3(O)C1C5 (stereo unspecified) [Oxymorphone]
LC retention time: 5.5 min

SMILES: COC1C(CO)OC(n2cnc3c(=O)[nH]c(N)nc32)C1O (stereo unspecified) [3'-O-Methylguanosine]
LC retention time: 5.8 min

SMILES: CCOC(=O)OC(C)OC1=C(C(=O)Nc2ccccn2)N(C)S(=O)(=O)c2ccccc21 (stereo unspecified) [Ampiroxicam]
LC retention time: 0.95 min

SMILES: CC(=O)NCC1CN(c2ccc(N3CCOCC3)c(F)c2)C(=O)O1 (stereo unspecified) [Linezolide]
LC retention time: 1.15 min

SMILES: CCN(CC)C(=S)SSC(=S)N(CC)CC [Disulfiram]
LC retention time: 0.93 min

SMILES: NC(=O)Cc1c[nH]c2ccccc12 [Indole-3-acetamide]
LC retention time: 1.36 min

The remaining lines, values ahead:

LC retention time: 2.85 min
SMILES: CC(C)(C)NC(=O)C1CC2CCCCC2CN1CC(O)C(Cc1ccccc1)NC(=O)C(CC(N)=O)NC(=O)c1ccc2ccccc2n1 (stereo unspecified) [Saquinavir]

LC retention time: 8.15 min
SMILES: CC(=O)N[C@@H](CCCCN)C(=O)O [N.alpha.-Acetyl-L-lysine]

LC retention time: 6.92 min
SMILES: NC(Cc1c[nH]c2ccccc12)C(=O)O (stereo unspecified) [Tryptophan]

LC retention time: 7.67 min
SMILES: CC(=O)OCC(N)C(=O)O (stereo unspecified) [O-Acetylserine]

LC retention time: 1.3 min
SMILES: COc1ccc(C(=O)O)cc1 [P-Anisic acid]

LC retention time: 9.29 min
SMILES: C[N+](C)(C)CCCCC(N)C(=O)[O-] (stereo unspecified) [NEPSILON,NEPSILON,NEPSILON-TRIMETHYLLYSINE]

LC retention time: 9.7 min
SMILES: C[S+](CCC(N)C(=O)[O-])CC1OC(n2cnc3c(N)ncnc32)C(O)C1O (stereo unspecified) [S-Adenosyl-methionine]

LC retention time: 4.7 min
SMILES: CC1OC(Oc2c(-c3ccc(O)c(O)c3)oc3cc(O)cc(O)c3c2=O)C(O)C(O)C1O (stereo unspecified) [Quercetin-3-ramnoside]

LC retention time: 5.76 min
SMILES: CCC1(O)CC2CN(CCc3c([nH]c4ccccc34)C(C(=O)OC)(c3cc4c(cc3OC)N(C)C3C(O)(C(N)=O)C(O)C5(CC)C=CCN6CCC43C65)C2)C1 (stereo unspecified) [Vindesine]

LC retention time: 5.18 min
SMILES: CCCCCCCCCCCCCCC(O)C(O)C(N)CO (stereo unspecified) [Phytosphingosine]

LC retention time: 1.34 min
SMILES: O=C(c1ccccc1)c1c(O)cc(O)cc1O [Phlorobenzophenone]

LC retention time: 1 min
SMILES: CC(=O)Oc1ccccc1C(=O)Nc1ncc([N+](=O)[O-])s1 [Nitazoxanide]

LC retention time: 4.41 min
SMILES: CC(Cc1ccccc1)(NC(=O)CN)c1ccccc1 (stereo unspecified) [Remacemide]

LC retention time: 0.95 min
SMILES: CC(=O)SCC(Cc1ccccc1)C(=O)NCC(=O)OCc1ccccc1 (stereo unspecified) [Racecadotril]

LC retention time: 7.68 min
SMILES: CNC(C(=O)O)C(C)O (stereo unspecified) [N-Methylthreonine]

LC retention time: 1.54 min
SMILES: Cn1c(=O)c2[nH]cnc2n(C)c1=O [Theophylline]

LC retention time: 4.72 min
SMILES: O=c1ccn(C2OC(CO)C(O)C2O)c(=O)[nH]1 (stereo unspecified) [Uridine]

LC retention time: 1.04 min
SMILES: CCS(=O)(=O)CCn1c([N+](=O)[O-])cnc1C [Tinidazole]

LC retention time: 7.51 min
SMILES: NC(=O)c1ccc[n+](C2OC(CO)C(O)C2O)c1 (stereo unspecified) [Nicotinamide riboside cation]

LC retention time: 2.23 min
SMILES: CCC1C(=O)OCC1Cc1cncn1C (stereo unspecified) [Pilocarpine]

LC retention time: 2.76 min
SMILES: COC1C=COC2(C)Oc3c(C)c(O)c4c(O)c(c5c(c4c3C2=O)=NC2(CCN(CC(C)C)CC2)N=5)NC(=O)C(C)=CC=CC(C)C(O)C(C)C(O)C(C)C(OC(C)=O)C1C (stereo unspecified) [Rifabutin]

LC retention time: 4.48 min
SMILES: OCc1ccccc1OC1OC(CO)C(O)C(O)C1O (stereo unspecified) [Salicin]

LC retention time: 9.85 min
SMILES: NC(COP(=O)(O)O)C(=O)O (stereo unspecified) [O-Phosphoserine]

LC retention time: 3.21 min
SMILES: Cn1c(NCCN(CCO)CCCc2ccc([N+](=O)[O-])cc2)cc(=O)n(C)c1=O [Nifekalant]

LC retention time: 6.99 min
SMILES: CCCCC(N)C(=O)O (stereo unspecified) [Norleucine]

LC retention time: 6.99 min
SMILES: CNC(C(=O)O)C(C)C (stereo unspecified) [N-Methylvaline]

LC retention time: 8.03 min
SMILES: CC(=O)NCCCCC(N)C(=O)O (stereo unspecified) [N-epsilon-Acetyllysine]

LC retention time: 1.1 min
SMILES: CC1(C)OC2COC3(COS(N)(=O)=O)OC(C)(C)OC3C2O1 (stereo unspecified) [Topiramate]

LC retention time: 7.35 min
SMILES: Cc1nc2ccc(CN(C)c3ccc(C(=O)NC(CCC(=O)O)C(=O)O)s3)cc2c(=O)[nH]1 (stereo unspecified) [Raltitrexed]

LC retention time: 2.02 min
SMILES: CN1C(=O)C(O)CC1c1cccnc1 (stereo not drawn) [trans-3'-Hydroxycotinine]

LC retention time: 6 min
SMILES: CC(=O)NCCc1cnc[nH]1 [N-omega-Acetylhistamine]

LC retention time: 8.71 min
SMILES: O=C1CCC(C(=O)O)N1 (stereo unspecified) [Pyroglutamic acid]

LC retention time: 9.55 min
SMILES: NC(=O)CCC(NC(=O)CCC(N)C(=O)O)C(=O)O (stereo unspecified) [gamma-Glutamylglutamine]

LC retention time: 9.77 min
SMILES: NCC(O)CCC(N)C(=O)O (stereo unspecified) [delta-Hydroxylysine]

LC retention time: 0.99 min
SMILES: CC(=O)CC(c1ccccc1)c1c(O)c2ccccc2oc1=O (stereo unspecified) [Warfarin]

LC retention time: 1.01 min
SMILES: Cc1onc(-c2ccccc2)c1-c1ccc(S(N)(=O)=O)cc1 [Valdecoxib]
